Consider 19 compounds from PMC3759464 (PLoS ONE, 2013).

Structures are written as SMILES. Where two headings read alike, the source gives them in different places.

Assay [1] deals with T1, rH4R (Rattus norvegicus, UniProt Q91ZY1). As to the kind of experiment: CRE-luciferase reporter gene assay, HEK293T. The format is cell-based. On the set-up: gene Hrh4; SF-rH4R-His6: cleavable influenza hemagglutinin signal peptide and FLAG, hexahistidine tag. Particulars: for EC50: read-out: rH4R / pEC50 or (pKB) (converted); for rH4R / pEC50 or (pKB): 1 µM forskolin, 5 h, 37 °C, agonist mode.

Assay [2] concerns the target T2, mH4R (Mus musculus, UniProt Q91ZY2).
T2 sequence (Q91ZY2 1-391): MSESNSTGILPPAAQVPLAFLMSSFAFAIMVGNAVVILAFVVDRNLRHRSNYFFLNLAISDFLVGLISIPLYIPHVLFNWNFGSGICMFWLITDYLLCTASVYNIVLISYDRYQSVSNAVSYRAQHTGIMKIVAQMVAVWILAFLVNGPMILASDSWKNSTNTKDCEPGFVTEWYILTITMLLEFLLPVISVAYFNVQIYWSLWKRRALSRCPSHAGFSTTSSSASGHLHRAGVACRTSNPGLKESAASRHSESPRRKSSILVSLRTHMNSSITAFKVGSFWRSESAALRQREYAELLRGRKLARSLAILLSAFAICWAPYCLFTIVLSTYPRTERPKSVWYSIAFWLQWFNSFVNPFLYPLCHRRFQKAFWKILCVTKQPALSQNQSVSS
As to the kind of experiment: cell-based. Also noted: gene Hrh4; SF-mH4R-His6: cleavable influenza hemagglutinin signal peptide and FLAG, hexahistidine tag; GTPgammaS: Sf9 membranes co-expressing Galphai2 and Gbeta1gamma2; species or system HEK293T-CRE-Luc stably expressing SF-H4R-His6.

The target in assay [3] is T3, hH4R (Homo sapiens, UniProt Q9H3N8). The assay is described as follows: cell-based. On the set-up: gene HRH4; SF-hH4R-His6: cleavable influenza hemagglutinin signal peptide and FLAG, hexahistidine tag; stably expressed in HEK293T with CRE-luc2P reporter. As to conditions: HEK293T-CRE-Luc stably expressing SF-H4R-His6, read-out: hH4R / α.
Assay [4] addresses T2, mH4R. As to the kind of experiment: CRE-luciferase reporter gene assay, HEK293T. Particulars: for EC50: read-out: mH4R / pEC50 or (pKB) (converted); for mH4R / pEC50 or (pKB): 1 µM forskolin, 5 h, 37 °C, agonist mode. Also noted: gene Hrh4; SF-mH4R-His6: cleavable influenza hemagglutinin signal peptide and FLAG, hexahistidine tag. Format: cell-based. (In general: A reporter such as luciferase makes a cellular process visible.)

Assay [5] addresses T1, rH4R. As to the kind of experiment: cell-based. Also noted: gene Hrh4.
For assay [6], the target named is T1, rH4R. The assay is described as follows: cell-based. Particulars: HEK293T-CRE-Luc stably expressing SF-H4R-His6, read-out: rH4R / α. Also noted: gene Hrh4.
Assay [7] concerns the target T1, rH4R. As to the kind of experiment: […]GTPγS binding, Sf9 membranes. The format is biochemical. On the set-up: gene Hrh4; SF-rH4R-His6: cleavable influenza hemagglutinin signal peptide and FLAG, hexahistidine tag; GTPgammaS: Sf9 membranes co-expressing Galphai2 and Gbeta1gamma2. As to conditions: read-out: rH4R / pEC50 or (pKB) (converted).
Assay [8] deals with T3, hH4R. As to the kind of experiment: cell-based. Also noted: gene HRH4.
Assay [9] has as its target T1, rH4R. As to the kind of experiment: cell-based. Also noted: gene Hrh4; SF-rH4R-His6: cleavable influenza hemagglutinin signal peptide and FLAG, hexahistidine tag; GTPgammaS: Sf9 membranes co-expressing Galphai2 and Gbeta1gamma2; species or system HEK293T; CRE-luciferase reporter gene assay, inhibition of forskolin-stimulated luminescence, agonist mode. Particulars: HEK-293T, read-out: rH4R / α.

Assay [10] has as its target T2, mH4R. The assay is described as follows: cell-based. Also noted: gene Hrh4. As to conditions: HEK293T-CRE-Luc stably expressing SF-H4R-His6, read-out: mH4R / α / −0.23±0.03.
Assay [11] has as its target T2, mH4R. The assay is described as follows: […]GTPγS binding, Sf9 membranes. The format is biochemical. Also noted: gene Hrh4; SF-mH4R-His6: cleavable influenza hemagglutinin signal peptide and FLAG, hexahistidine tag; GTPgammaS: Sf9 membranes co-expressing Galphai2 and Gbeta1gamma2. Particulars: read-out: mH4R / pEC50 or (pKB) (converted). Background: GTPγS is a poorly hydrolysed GTP analogue; its binding reports G protein activation.

The target in assay [12] is T1, rH4R. The assay is described as follows: CRE-luciferase reporter gene assay, HEK293T. The format is cell-based. Also noted: gene Hrh4; SF-rH4R-His6: cleavable influenza hemagglutinin signal peptide and FLAG, hexahistidine tag. Particulars: read-out: rH4R / pEC50 or (pKB) (converted).
Assay [13] addresses T3, hH4R. The assay is described as follows: cell-based. On the set-up: gene HRH4; SF-hH4R-His6: cleavable influenza hemagglutinin signal peptide and FLAG, hexahistidine tag; stably expressed in HEK293T with CRE-luc2P reporter; species or system HEK293T; CRE-luciferase reporter gene assay, inhibition of forskolin-stimulated luminescence, agonist mode. As to conditions: HEK-293T, read-out: hH4R / α.

Where [14] appears, read: HEK293T-CRE-Luc stably expressing SF-H4R-His6, read-out: mH4R / α.
Setting [15] is: HEK293T-CRE-Luc stably expressing SF-H4R-His6, read-out: rH4R / α.
Setting [16] is: HEK293T-CRE-Luc stably expressing SF-H4R-His6, read-out: hH4R / α / −0.32±0.04 / −0.39±0.03.

T1 sequence (Q91ZY1 whole entry): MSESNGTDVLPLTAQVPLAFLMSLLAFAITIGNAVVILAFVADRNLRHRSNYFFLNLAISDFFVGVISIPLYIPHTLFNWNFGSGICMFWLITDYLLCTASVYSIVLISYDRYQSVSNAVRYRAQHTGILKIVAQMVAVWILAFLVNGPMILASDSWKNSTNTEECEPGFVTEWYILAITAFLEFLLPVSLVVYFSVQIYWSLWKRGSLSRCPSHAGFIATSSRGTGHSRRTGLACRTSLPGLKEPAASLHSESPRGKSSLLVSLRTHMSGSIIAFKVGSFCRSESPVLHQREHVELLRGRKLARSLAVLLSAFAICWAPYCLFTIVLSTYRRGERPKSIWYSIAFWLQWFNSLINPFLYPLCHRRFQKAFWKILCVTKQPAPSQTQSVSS
T3 sequence (Q9H3N8 whole entry): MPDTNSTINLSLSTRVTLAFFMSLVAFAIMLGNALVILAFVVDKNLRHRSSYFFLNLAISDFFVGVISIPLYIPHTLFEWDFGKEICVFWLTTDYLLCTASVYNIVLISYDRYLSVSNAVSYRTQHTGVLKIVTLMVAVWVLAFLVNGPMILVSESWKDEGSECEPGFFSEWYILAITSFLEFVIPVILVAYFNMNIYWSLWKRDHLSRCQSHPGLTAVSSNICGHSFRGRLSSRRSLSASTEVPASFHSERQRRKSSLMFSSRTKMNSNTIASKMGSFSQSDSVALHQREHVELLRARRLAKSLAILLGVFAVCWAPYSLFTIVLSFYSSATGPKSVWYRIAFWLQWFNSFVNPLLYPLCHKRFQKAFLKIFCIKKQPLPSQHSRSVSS

With `Cc1nc[nH]c1CCN` [compound 5, 5(4)-Methylhistamine], the figures for the EC50 at rH4R [1] and on mH4R [4] were 933 nM and 135 nM, respectively. In addition, the figures for the Emax at mH4R [2] (setting [14]), at hH4R [3] and on rH4R [5] (setting [15]) were 97 ± 2%, 97 ± 3% and 100 ± 3%, respectively.
Taken in the same sequence, the figures for `c1cc(Cc2cnc[nH]2)ccn1` [compound 7, Immethridine] were 1580 nM, 1120 nM, 87 ± 2%, 65 ± 2% and 94 ± 1%.
Consider `CN1CCN(c2cc(NCc3c(Cl)cccc3Cl)nc(N)n2)CC1` [compound 16, ST-1006], for which the Emax at rH4R [6] is -55 ± 12%; on mH4R [2] (setting [14]) it was 37 ± 4%; on hH4R [3], 91 ± 1%.
With `NC(=NCc1ccc(Cl)cc1)SCCCc1cnc[nH]1` [compound 9, Clobenpropit], the EC50 at rH4R [1] is 158 nM; on mH4R [4], 186 nM. For the same compound, the results for the Emax on mH4R [2] (setting [14]), at hH4R [3] and on rH4R [5] (setting [15]) were 55 ± 5%, 97 ± 3% and 37 ± 3%, respectively. The Kb at rH4R [7] is 501 nM.
In the case of `Nc1nc2c(c(N3CC[C@@H](N)C3)n1)CCCc1ccccc1-2` [compound 22, A 943931], the Emax at hH4R [8] (setting [16]) is -63 ± 7%; on rH4R [9] it was -6%.
`C[C@H](N)Cc1c[nH]cn1` [compound 3, (S)-α-Methylhistamine]: at rH4R [1], the “rH4R / pEC50 or (pKB)” value was 4.26±0.04. Besides, the results for the Emax on mH4R [2] (setting [14]), on hH4R [3] and on rH4R [5] (setting [15]) were 82 ± 7%, 90 ± 4% and 69 ± 3%, respectively. Moreover, the “mH4R / pEC50 or (pKB)” value at mH4R [4] is listed as 4.72±0.16.
Consider `CN1CCN(c2cc(N3Cc4ccccc4C3)nc(N)n2)CC1` [compound 21, ST-1012], for which the EC50 at rH4R [1] was 7.59 nM; on mH4R [4], 32.4 nM. Also, the Emax at hH4R [8] (HEK293T-CRE-Luc stably expressing SF-H4R-His6, read-out: hH4R / α / −0.31±0.06 / −0.32±0.04) is -39 ± 3%; on mH4R [2] (HEK293T-CRE-Luc stably expressing SF-H4R-His6, read-out: mH4R / α / −0.23±0.03 / −0.44±0.02), 24 ± 5%; at rH4R [5] (HEK293T-CRE-Luc stably expressing SF-H4R-His6, read-out: rH4R / α / −0.20±0.02) it was 24 ± 7%.
Consider `S=C(NC1CCCCC1)N1CCC(c2c[nH]cn2)CC1` [compound 20, Thioperamide], for which the Emax was -44 ± 2% on mH4R [10]; -32 ± 4% on hH4R [8] (HEK293T-CRE-Luc stably expressing SF-H4R-His6, read-out: hH4R / α / −0.31±0.06); -20 ± 2% at rH4R [9].
`N=C(N)SCCc1cnc[nH]1` [compound 8, Imetit]: the figures for the EC50 at rH4R [1] and at mH4R [4] were 61.7 nM and 38.9 nM, respectively. Moreover, the Emax was 96 ± 2% on mH4R [2] (setting [14]), 94 ± 2% on hH4R [3] and 95 ± 1% at rH4R [5] (setting [15]).
Take `Nc1nc2c(c(N3CCNCC3)n1)CCC1=C2[C@H]2CCCC[C@H]2O1` [compound 23, A 987306]: the Emax is -62 ± 7% on hH4R [8] (setting [16]) and -8% at rH4R [9].
`C[C@@H](N)Cc1cnc[nH]1` [compound 2, (R)-α-Methylhistamine]: on rH4R [1], the “rH4R / pEC50 or (pKB)” value turned out to be 5.60±0.12. Besides, the Emax on mH4R [2] (setting [14]) came to 98 ± 1%; on hH4R [3], 103 ± 4%; on rH4R [5] (setting [15]) it was 96 ± 2%. For the same compound, on mH4R [4], the “mH4R / pEC50 or (pKB)” value is listed as 6.16±0.07.
As to `c1nc(CC2CCNCC2)c[nH]1` [compound 6, Immepip], the EC50 was 67.6 nM at rH4R [1] and 141 nM at mH4R [4]. The Emax on mH4R [2] (setting [14]) was determined as 95 ± 3%; on hH4R [3], 98 ± 2%; on rH4R [5] (setting [15]), 93 ± 5%.
Take `CNCCc1cnc[nH]1` [compound 4, N^α-Methylhistamine]: the EC50 on rH4R [1] is 589 nM; on mH4R [4], 575 nM. Further, the Emax on mH4R [2] (setting [14]) was determined as 97 ± 2%; on hH4R [3], 98 ± 3%; at rH4R [5] (setting [15]), 98 ± 4%.
On to `NCCc1c[nH]cn1` [compound 1, Histamine], for which the Emax at mH4R [2] (setting [14]), on hH4R [3] and on rH4R [5] (setting [15]) was 100% in each case.
With `CN1CCN(C2=Nc3cc(Cl)ccc3Nc3ccccc32)CC1` [compound 17, Clozapine], at hH4R [3], the Emax was found to be 130 ± 5%.
In the case of `N#C/N=C(/NCCCCc1c[nH]cn1)NCCSc1ccccc1` [compound 14, 2-cyano-1-[4-(1H-imidazol-4-yl)butyl]-3-[(2-phenylthio)ethyl]guanidine], the Kb is 794 nM at mH4R [11] and 7.08 µM on rH4R [12]. Moreover, on mH4R [4], the EC50 was 245 nM.
As for `N#CNC(=NCCCCc1cnc[nH]1)NCCSc1ccccc1` [UR-PI376 (14)], the Emax on mH4R [2] (setting [14]) came out at 51 ± 5%; on hH4R [3], 102 ± 2%; at rH4R [9], 8 ± 10%.
Take `c1ccc(COCCCc2c[nH]cn2)cc1` [compound 11, Proxyfan]: the EC50 at rH4R [1] was 2140 nM; at mH4R [4] it was 794 nM. Further, the Emax was found to be 88 ± 4% at mH4R [2] (setting [14]); 68 ± 2% on hH4R [3]; 76 ± 3% at rH4R [5] (HEK293T-CRE-Luc stably expressing SF-H4R-His6, read-out: rH4R / α / −0.01±0.06).
For the compound `c1ncc(CCCC2CCNCC2)[nH]1` [compound 18, VUF 5681], the Emax on hH4R [13] is 9%; on mH4R [2] (setting [14]), 42 ± 2%. In addition, the EC50 at mH4R [4] was 6310 nM.
